In brackets after ≈: the same amount, converted by molar mass.
Key:
Staphylococcus aureus [1] = test: Antibacterial activity against Staphylococcus aureus FDA 209-P after 18 hrs by twofold microbroth dilution method; assay type: functional
[2] = tested on: Staphylococcus epidermidis; test: Antibacterial activity against Staphylococcus epidermidis 56500 after 18 hrs by twofold microbroth dilution method; assay type: functional; settings: Staphylococcus epidermidis, 56500, 18 h
Streptococcus pneumoniae [3] = test: Antibacterial activity against Streptococcus pneumoniae J-24 after 18 hrs by twofold microbroth dilution method; assay type: functional; settings: J-24, 18 h
Streptococcus pyogenes = test: Antibacterial activity against Streptococcus pyogenes G-36 after 18 hrs by twofold microbroth dilution method; assay type: functional; settings: G-36, 18 h
Streptococcus mitis = test: Antibacterial activity against Streptococcus mitis IID685 after 18 hrs by twofold microbroth dilution method; assay type: functional; settings: IID685, 18 h
Enterococcus faecalis [4] = test: Antibacterial activity against Enterococcus faecalis ATCC 19433 after 18 hrs by twofold microbroth dilution method; assay type: functional; settings: ATCC19433, 18 h
Escherichia coli = test: Antibacterial activity against Escherichia coli NIHJ after 18 hrs by twofold microbroth dilution method; assay type: functional
Klebsiella pneumoniae = test: Antibacterial activity against Klebsiella pneumoniae type 2 after 18 hrs by twofold microbroth dilution method; assay type: functional; settings: type 2, 18 h
Pseudomonas aeruginosa = test: Antibacterial activity against Pseudomonas aeruginosa PAO1 after 18 hrs by twofold microbroth dilution method; assay type: functional; settings: PAO1, 18 h
Mus musculus [5] = test: Toxicity in Slc:ddY mouse at 100 mg/kg, iv; assay type: organism-based; parameters: dose 100 mg/kg, route intravenous; settings: in vivo
Mus musculus [6] = test: Toxicity in Slc:ddY mouse assessed as micronucleated reticulocyte in blood at 100 mg/kg, iv after 48 hrs of treatment by fluorescence microscopy; assay type: organism-based; parameters: dose 100 mg/kg, route intravenous; settings: in vivo
[7] = Aqueous […] of the compound; assay type: physicochemical; settings: aqueous (not further specified)
[8] = AUC (0 to 6 hrs) in Crj:CD rat kidney at 20 mg/kg, iv; assay type: ADME, organism-based; parameters: time < 6 hr, dose 20 mg/kg, route intravenous
[9] = AUC (0 to 6 hrs) in Crj:CD rat lung at 20 mg/kg, iv; assay type: ADME, organism-based; parameters: time < 6 hr, dose 20 mg/kg, route intravenous
[10] = Ratio of AUC (0 to 6 hrs) liver to serum in Crj:CD rat […] at 20 mg/kg, iv; assay type: ADME, organism-based; parameters: dose 20 mg/kg, route intravenous
[11] = Ratio of AUC (0 to 6 hrs) kidney to serum in Crj:CD rat […] at 20 mg/kg, iv; assay type: ADME, organism-based; parameters: dose 20 mg/kg, route intravenous
[12] = Ratio of AUC (0 to 6 hrs) lung to serum in Crj:CD rat lung at 20 mg/kg, iv; assay type: ADME, organism-based; parameters: dose 20 mg/kg, route intravenous
[13] = Cmax in cynomolgus monkey serum at 20 mg/kg, po; assay type: ADME, organism-based, Macaca fascicularis; parameters: dose 20 mg/kg, route oral
[14] = Cmax in cynomolgus monkey serum at 20 mg/kg, iv; assay type: ADME, organism-based, Macaca fascicularis; parameters: dose 20 mg/kg, route intravenous
[15] = Half life in cynomolgus monkey serum at 20 mg/kg, po; assay type: ADME, organism-based, Macaca fascicularis; parameters: dose 20 mg/kg, route oral
[16] = Half life in cynomolgus monkey serum at 20 mg/kg, iv; assay type: ADME, organism-based, Macaca fascicularis; parameters: dose 20 mg/kg, route intravenous
[17] = AUC (0 to 6 hrs) in cynomolgus monkey serum at 20 mg/kg, po; assay type: ADME, organism-based, Macaca fascicularis, Plasma; parameters: time < 6 hr, dose 20 mg/kg, route oral
[18] = AUC (0 to 6 hrs) in cynomolgus monkey serum at 20 mg/kg, iv; assay type: ADME, organism-based, Macaca fascicularis, Plasma; parameters: time < 6 hr, dose 20 mg/kg, route intravenous
[19] = Oral bioavailability in cynomolgus monkey serum at 20 mg/kg; assay type: ADME, organism-based, Macaca fascicularis
Mus musculus [20] = test: Toxicity in Slc:ddY mouse assessed as micronucleated reticulocyte in blood at 150 mg/kg, iv after 48 hrs of treatment by fluorescence microscopy; assay type: organism-based; parameters: dose 150 mg/kg, route intravenous; settings: in vivo
Staphylococcus aureus [21] = test: Antibacterial activity against levofloxacin, methicillin-resistant Staphylococcus aureus after 18 hrs by twofold microbroth dilution method; assay type: functional
Staphylococcus aureus [22] = test: Antibacterial activity against ciprofloxacin, methicillin-resistant Staphylococcus aureus after 18 hrs by twofold microbroth dilution method; assay type: functional
Streptococcus pneumoniae [23] = test: Antibacterial activity against penicillin-intermediate resistant Streptococcus pneumoniae after 18 hrs by twofold microbroth dilution method; assay type: functional
Enterococcus faecalis [24] = test: Antibacterial activity against vancomycin-resistant Enterococcus faecalis after 18 hrs by twofold microbroth dilution method; assay type: functional
Enterococcus faecium = test: Antibacterial activity against vancomycin-resistant Enterococcus faecium after 18 hrs by twofold microbroth dilution method; assay type: functional
[25] = Inhibition of Staphylococcus aureus wild type DNA topoisomerase 4
[26] = Inhibition of Staphylococcus aureus DNA topoisomerase 4 Ser80Phe mutant
Staphylococcus aureus [27] = test: Selectivity ratio of IC50 for Staphylococcus aureus DNA topoisomerase 4 Ser80Phe mutant to IC50 for Staphylococcus aureus wild type DNA topoisomerase 4
DNA gyrase = DNA gyrase (Staphylococcus aureus, UniProt P0A0K8+P20831); test: Inhibition of Staphylococcus aureus wild type DNA gyrase; assay type: protein-complex assay
DNA gyrase subunit A = DNA gyrase subunit A (Staphylococcus aureus, UniProt P20831, S84L); test: Inhibition of Staphylococcus aureus DNA gyrase Ser84Leu mutant
Staphylococcus aureus [28] = test: Selectivity ratio of IC50 for Staphylococcus aureus DNA gyrase Ser84Leu mutant to IC50 for Staphylococcus aureus wild type DNA gyrase
[29] = Cmax in Crj:CD rat serum at 20 mg/kg, po; assay type: ADME, organism-based; parameters: dose 20 mg/kg, route oral
[30] = Half life in Crj:CD rat serum at 20 mg/kg, po; assay type: ADME, organism-based; parameters: dose 20 mg/kg, route oral
[31] = AUC (0 to 6hrs) in Crj:CD rat serum at 20 mg/kg, po; assay type: ADME, organism-based; parameters: time < 6 hr, dose 20 mg/kg, route oral
[32] = Oral bioavailability in Crj:CD rat serum at 20 mg/kg; assay type: ADME, organism-based
[33] = Cmin in Crj:CD rat serum at 20 mg/kg, iv after 5 mins; assay type: ADME, organism-based; parameters: dose 20 mg/kg, route intravenous; settings: read-out: Cmin
[34] = Cmin in Crj:CD rat liver at 20 mg/kg, iv after 5 mins; assay type: ADME, organism-based; parameters: dose 20 mg/kg, route intravenous; settings: read-out: Cmin
[35] = Cmin in Crj:CD rat kidney at 20 mg/kg, iv after 5 mins; assay type: ADME, organism-based; parameters: dose 20 mg/kg, route intravenous; settings: read-out: Cmin
[36] = Cmin in Crj:CD rat lung at 20 mg/kg, iv after 5 mins; assay type: ADME, organism-based; parameters: dose 20 mg/kg, route intravenous; settings: read-out: Cmin
[37] = Half life in Crj:CD rat serum at 20 mg/kg, iv; assay type: ADME, organism-based; parameters: dose 20 mg/kg, route intravenous
[38] = Half life in Crj:CD rat liver at 20 mg/kg, iv; assay type: ADME, organism-based; parameters: dose 20 mg/kg, route intravenous
[39] = Half life in Crj:CD rat kidney at 20 mg/kg, iv; assay type: ADME, organism-based; parameters: dose 20 mg/kg, route intravenous
[40] = Half life in Crj:CD rat lung at 20 mg/kg, iv; assay type: ADME, organism-based; parameters: dose 20 mg/kg, route intravenous
[41] = AUC (0 to 6 hrs) in Crj:CD rat serum at 20 mg/kg, iv; assay type: ADME, organism-based; parameters: time < 6 hr, dose 20 mg/kg, route intravenous
[42] = AUC (0 to 6 hrs) in Crj:CD rat liver at 20 mg/kg, iv; assay type: ADME, organism-based; parameters: time < 6 hr, dose 20 mg/kg, route intravenous

CNC1([C@@H]2CCN(c3ccc4c(=O)c(C(=O)O)cn([C@@H]5C[C@@H]5F)c4c3OC)C2)CC1
MIC (Staphylococcus aureus [1]): ≤ 0.003 µg/mL
MIC [2]: 0.012 µg/mL (≈ 0.0289 µM)
MIC (Streptococcus pneumoniae [3]): 0.006 µg/mL (≈ 0.0144 µM)
MIC (Streptococcus pyogenes): 0.012 µg/mL (≈ 0.0289 µM)
MIC (Streptococcus mitis): 0.003 µg/mL (≈ 0.00722 µM)
MIC (Enterococcus faecalis [4]): 0.05 µg/mL (≈ 0.12 µM)
MIC (Escherichia coli): 0.006 µg/mL (≈ 0.0144 µM)
MIC (Klebsiella pneumoniae): 0.05 µg/mL (≈ 0.12 µM)
MIC (Pseudomonas aeruginosa): 0.39 µg/mL (≈ 0.939 µM)
Activity (Mus musculus [5]): Non-toxic
Activity (Mus musculus [6]): Non-toxic
solubility [7]: 161 µg/mL (≈ 388 µM)

COc1c(N2CC[C@@H](C3(N)CC3)C2)ccc2c(=O)c(C(=O)O)cn([C@@H]3C[C@@H]3F)c12
AUC(0-t) at 6 h [8]: 64400 ng·h/mL
AUC(0-t) at 6 h [9]: 45500 ng·h/mL
Kp [10]: 4.6
Kp [11]: 4.4
Kp [12]: 3.1
Cmax [13]: 3700 ng/mL
Cmax [14]: 12300 ng/mL
half-life [15]: 6 h
half-life [16]: 4.4 h
AUC(0-t) at 6 h [17]: 37500 ng·h/mL
AUC(0-t) at 6 h [18]: 64400 ng·h/mL
bioavailability [19]: 58.2%
MIC (Staphylococcus aureus [1]): ≤ 0.003 µg/mL
MIC [2]: 0.006 µg/mL (≈ 0.0149 µM)
MIC (Streptococcus pneumoniae [3]): 0.006 µg/mL (≈ 0.0149 µM)
MIC (Streptococcus pyogenes): 0.006 µg/mL (≈ 0.0149 µM)
MIC (Streptococcus mitis): 0.003 µg/mL (≈ 0.00747 µM)
MIC (Enterococcus faecalis [4]): 0.025 µg/mL (≈ 0.0623 µM)
MIC (Escherichia coli): ≤ 0.003 µg/mL
MIC (Klebsiella pneumoniae): 0.05 µg/mL (≈ 0.125 µM)
MIC (Pseudomonas aeruginosa): 0.39 µg/mL (≈ 0.972 µM)
Activity (Mus musculus [5]): Non-toxic
Activity (Mus musculus [20]): Toxic
solubility [7]: 480 µg/mL (≈ 1200 µM)
MIC50 (Staphylococcus aureus [21]): 0.12 µg/mL (≈ 0.299 µM)
MIC80 (Staphylococcus aureus [21]): 1 µg/mL (≈ 2.49 µM)
MIC90 (Staphylococcus aureus [21]): 1 µg/mL (≈ 2.49 µM)
MIC50 (Staphylococcus aureus [22]): 0.06 µg/mL (≈ 0.149 µM)
MIC90 (Staphylococcus aureus [22]): 0.5 µg/mL (≈ 1.25 µM)
MIC50 (Streptococcus pneumoniae [23]): 0.03 µg/mL (≈ 0.0747 µM)
MIC90 (Streptococcus pneumoniae [23]): 0.03 µg/mL (≈ 0.0747 µM)
MIC50 (Enterococcus faecalis [24]): 0.25 µg/mL (≈ 0.623 µM)
MIC90 (Enterococcus faecalis [24]): 0.5 µg/mL (≈ 1.25 µM)
MIC50 (Enterococcus faecium): 0.25 µg/mL (≈ 0.623 µM)
MIC90 (Enterococcus faecium): 2 µg/mL (≈ 4.98 µM)
IC50 [25]: 0.309 µg/mL (≈ 0.77 µM)
IC50 [26]: 1.76 µg/mL (≈ 4.38 µM)
Ratio IC50 (Staphylococcus aureus [27]): 5.7
IC50 (DNA gyrase): 2.08 µM
IC50 (DNA gyrase subunit A): 19.5 µM
Ratio IC50 (Staphylococcus aureus [28]): 9.35
Cmax [29]: 6700 ng/mL
half-life [30]: 1.3 h
AUC(0-t) at 6 h [31]: 9800 ng·h/mL
bioavailability [32]: 67.4%
concentration at 5 min [33]: 11000 ng/mL
concentration at 5 min [34]: 48500 ng/mL
concentration at 5 min [35]: 47200 ng/mL
concentration at 5 min [36]: 32400 ng/mL
half-life [37]: 1.2 h
half-life [38]: 1.1 h
half-life [39]: 1.4 h
half-life [40]: 1.2 h
AUC(0-t) at 6 h [41]: 14500 ng·h/mL
AUC(0-t) at 6 h [42]: 66100 ng·h/mL

From ChEMBL document CHEMBL1152592, “Design, synthesis and biological evaluations of novel 7-[3-(1-aminocycloalkyl)pyrrolidin-1-yl]-6-desfluoro-8-methoxyquinolones with potent antibacterial activity against multi-drug resistant Gram-positive bacteria” (Bioorg Med Chem, 2009)
